Reference: the supplement of paper PMC10307832

What was measured:
Assay in all cases: relative viability (nuclei count vs DMSO), 5 days (fraction); higher = more cells survive
[1] = test system: 201T
Procedure, shortened: (§1)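 One day after seeding in 1536-well plates, lung cancer cell lines were dosed by pin tool. Dosing was either single-drug or a fixed anchor-drug dose plus five library-drug doses (not always all listed) in √10 steps. After 5 days, nuclei were stained in one fix-and-stain step and counted on 4× images, and relative viability is the nuclei count of treated wells over that of vehicle wells, given as the median of duplicate plates.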

[2] = test system: BEN
Procedure, shortened: as §1

[3] = test system: EPLC-272H
Procedure, shortened: as §1

[4] = test system: HCC-15
Procedure, shortened: as §1

[5] = test system: HCC-78
Procedure, shortened: as §1

[6] = test system: LCLC-97TM1
Procedure, shortened: as §1

[7] = test system: LU99A
Procedure, shortened: as §1

[8] = test system: NCI-H1355
Procedure, shortened: as §1

[9] = test system: NCI-H1395
Procedure, shortened: as §1

[10] = test system: NCI-H2009
Procedure, shortened: as §1

[11] = test system: NCI-H2085
Procedure, shortened: as §1

[12] = test system: NCI-H2126
Procedure, shortened: as §1

[13] = test system: NCI-H2228
Procedure, shortened: as §1

[14] = test system: NCI-H2342
Procedure, shortened: as §1

[15] = test system: NCI-H23
Procedure, shortened: as §1

[16] = test system: NCI-H2405
Procedure, shortened: as §1

[17] = test system: NCI-H322M
Procedure, shortened: as §1

[18] = test system: NCI-H460
Procedure, shortened: as §1

[19] = test system: NCI-H647
Procedure, shortened: as §1

[20] = test system: NCI-H650
Procedure, shortened: as §1

[21] = test system: NCI-H661
Procedure, shortened: as §1

[22] = test system: NCI-H838
Procedure, shortened: as §1

[23] = test system: PC-14
Procedure, shortened: as §1

## CCNC(=O)c1noc(-c2cc(C(C)C)c(O)cc2O)c1-c1ccc(CN2CCOCC2)cc1 [Luminespib] + Nc1nc2[nH]cc(CCc3ccc(C(=O)N[C@@H](CCC(=O)O)C(=O)O)cc3)c2c(=O)[nH]1 [Pemetrexed] (partner 0.2 µM)
[1]; first compound 0.002 µM
  relative viability: 0.333
[1]; first compound 0.006325 µM
  relative viability: 0.311
[1]; first compound 0.02 µM
  relative viability: 0.346
[1]; first compound 0.06325 µM
  relative viability: 0.359
[1]; first compound 0.2 µM
  relative viability: 0.206
[2]; first compound 0.002 µM
  relative viability: 0.805
[2]; first compound 0.006325 µM
  relative viability: 0.584
[2]; first compound 0.02 µM
  relative viability: 0.463
[2]; first compound 0.06325 µM
  relative viability: 0.5
[2]; first compound 0.2 µM
  relative viability: 0.252
[3]; first compound 0.002 µM
  relative viability: 0.41
[3]; first compound 0.006325 µM
  relative viability: 0.266
[3]; first compound 0.02 µM
  relative viability: 0.335
[3]; first compound 0.06325 µM
  relative viability: 0.133
[3]; first compound 0.2 µM
  relative viability: 0.113
[4]; first compound 0.002 µM
  relative viability: 0.219
[4]; first compound 0.006325 µM
  relative viability: 0.236
[4]; first compound 0.02 µM
  relative viability: 0.214
[4]; first compound 0.06325 µM
  relative viability: 0.193
[4]; first compound 0.2 µM
  relative viability: 0.137
[5]; first compound 0.002 µM
  relative viability: 0.885
[5]; first compound 0.006325 µM
  relative viability: 0.864
[5]; first compound 0.02 µM
  relative viability: 0.97
[5]; first compound 0.06325 µM
  relative viability: 0.87
[5]; first compound 0.2 µM
  relative viability: 0.858
[6]; first compound 0.002 µM
  relative viability: 0.189
[6]; first compound 0.006325 µM
  relative viability: 0.164
[6]; first compound 0.06325 µM
  relative viability: 0.0959
[6]; first compound 0.2 µM
  relative viability: 0.0922
[7]; first compound 0.002 µM
  relative viability: 0.192
[7]; first compound 0.006325 µM
  relative viability: 0.198
[7]; first compound 0.02 µM
  relative viability: 0.177
[7]; first compound 0.06325 µM
  relative viability: 0.168
[7]; first compound 0.2 µM
  relative viability: 0.127
[8]; first compound 0.002 µM
  relative viability: 1.12
[8]; first compound 0.006325 µM
  relative viability: 1.02
[8]; first compound 0.02 µM
  relative viability: 0.627
[8]; first compound 0.06325 µM
  relative viability: 0.895
[8]; first compound 0.2 µM
  relative viability: 0.14
[9]; first compound 0.002 µM
  relative viability: 0.875
[9]; first compound 0.006325 µM
  relative viability: 0.812
[9]; first compound 0.02 µM
  relative viability: 0.699
[9]; first compound 0.06325 µM
  relative viability: 0.299
[9]; first compound 0.2 µM
  relative viability: 0.353
[10]; first compound 0.002 µM
  relative viability: 1.16
[10]; first compound 0.006325 µM
  relative viability: 0.973
[10]; first compound 0.02 µM
  relative viability: 1.17
[10]; first compound 0.06325 µM
  relative viability: 0.901
[10]; first compound 0.2 µM
  relative viability: 0.0692
[11]; first compound 0.002 µM
  relative viability: 0.908
[11]; first compound 0.006325 µM
  relative viability: 0.893
[11]; first compound 0.02 µM
  relative viability: 0.698
[11]; first compound 0.06325 µM
  relative viability: 0.309
[11]; first compound 0.2 µM
  relative viability: 0.261
[12]; first compound 0.002 µM
  relative viability: 0.705
[12]; first compound 0.006325 µM
  relative viability: 0.626
[12]; first compound 0.06325 µM
  relative viability: 0.479
[12]; first compound 0.2 µM
  relative viability: 0.181
[13]; first compound 0.002 µM
  relative viability: 0.346
[13]; first compound 0.006325 µM
  relative viability: 0.405
[13]; first compound 0.02 µM
  relative viability: 0.257
[13]; first compound 0.06325 µM
  relative viability: 0.079
[13]; first compound 0.2 µM
  relative viability: 0.136
[14]; first compound 0.002 µM
  relative viability: 0.776
[14]; first compound 0.006325 µM
  relative viability: 0.755
[14]; first compound 0.02 µM
  relative viability: 0.548
[14]; first compound 0.06325 µM
  relative viability: 0.749
[14]; first compound 0.2 µM
  relative viability: 0.454
[15]; first compound 0.002 µM
  relative viability: 0.743
[15]; first compound 0.006325 µM
  relative viability: 0.655
[15]; first compound 0.02 µM
  relative viability: 0.391
[15]; first compound 0.06325 µM
  relative viability: 0.139
[15]; first compound 0.2 µM
  relative viability: 0.14
[16]; first compound 0.002 µM
  relative viability: 1.08
[16]; first compound 0.02 µM
  relative viability: 0.915
[16]; first compound 0.06325 µM
  relative viability: 0.183
[16]; first compound 0.2 µM
  relative viability: 0.179
[17]; first compound 0.002 µM
  relative viability: 0.638
[17]; first compound 0.006325 µM
  relative viability: 0.507
[17]; first compound 0.02 µM
  relative viability: 0.596
[17]; first compound 0.06325 µM
  relative viability: 0.409
[17]; first compound 0.2 µM
  relative viability: 0.376
[18]; first compound 0.002 µM
  relative viability: 0.0608
[18]; first compound 0.006325 µM
  relative viability: 0.0558
[18]; first compound 0.02 µM
  relative viability: 0.0687
[18]; first compound 0.06325 µM
  relative viability: 0.0359
[18]; first compound 0.2 µM
  relative viability: 0.0287
[19]; first compound 0.002 µM
  relative viability: 0.202
[19]; first compound 0.006325 µM
  relative viability: 0.189
[19]; first compound 0.02 µM
  relative viability: 0.193
[19]; first compound 0.06325 µM
  relative viability: 0.106
[19]; first compound 0.2 µM
  relative viability: 0.0832
[20]; first compound 0.002 µM
  relative viability: 0.925
[20]; first compound 0.006325 µM
  relative viability: 0.983
[20]; first compound 0.02 µM
  relative viability: 0.625
[20]; first compound 0.06325 µM
  relative viability: 0.257
[20]; first compound 0.2 µM
  relative viability: 0.113
[21]; first compound 0.002 µM
  relative viability: 0.921
[21]; first compound 0.006325 µM
  relative viability: 0.863
[21]; first compound 0.02 µM
  relative viability: 0.966
[21]; first compound 0.06325 µM
  relative viability: 0.651
[21]; first compound 0.2 µM
  relative viability: 0.318
[22]; first compound 0.002 µM
  relative viability: 0.265
[22]; first compound 0.006325 µM
  relative viability: 0.256
[22]; first compound 0.02 µM
  relative viability: 0.284
[22]; first compound 0.06325 µM
  relative viability: 0.141
[22]; first compound 0.2 µM
  relative viability: 0.177
[23]; first compound 0.002 µM
  relative viability: 0.148
[23]; first compound 0.006325 µM
  relative viability: 0.175
[23]; first compound 0.02 µM
  relative viability: 0.132
[23]; first compound 0.06325 µM
  relative viability: 0.0853
[23]; first compound 0.2 µM
  relative viability: 0.0503
